Experiment [1] concerns the target Bcl-xL (residues 1-209, loop 45-86 deleted) (Homo sapiens (Human), UniProt Q07817, DEL45-86). As to the kind of experiment: Bak peptide binding assay, fluorescence polarization anisotropy competition (FITC-Bak), Bcl-xL selectivity. The note with it: Table 4; FITC-Bak peptide 10 nM, Bcl-xL 4 nM. As for the experimental part: (§1) Bak Peptide Binding Assay
(§2) Compound affinity was measured using a fluorescence polarization anisotropy competition assay. Anisotropy measurements were carried out in 384-well, black, flat-bottom plates (Greiner Bio-one, Monroe, N.C., USA). The assay was run using a fluorescein isothiocyanate-labeled BH3 peptide derived from Bak (FITC-AHx-[…]-NH2) that was purchased from GenScript (Piscataway, N.J.) at >95% purity and used without further purification. 10 nM FITC-Bak peptide and 14 nM recombinant Mcl-1 (residues 172-327) were added to assay buffer (3 mM dithiothreitol, 50 mM NaCl, 20 mM Tris, pH 7.5). For selectivity assays, 40 nM Bcl-2 (residues 1-207^A96T,G110R, Δ35-91, replaced with Bcl-xL35-50) or 4 nM Bcl-xL (residues 1-209, loop 45-86 deleted) were incubated with 10 nM FITC-Bak in assay buffer.
(§3) Compounds are diluted in DMSO in a 10-point, 3-fold serial dilution scheme. 2.5 uL compound is added to 47.5 uL of assay buffer containing FITC-Bak and protein, for a final DMSO concentration of 5% and a top concentration of 20 uM. […] The plate was mixed and incubated for 90 minutes at room temperature. Anisotropy is measured at excitation wavelength 480 nm and emission wavelength 535 nm using an EnVision Multi-label plate reader (PerkinElmer, Wellesley, Mass., USA). Fluorescence anisotropy is plotted against compound concentration to generate an IC50 (inhibitor concentration at which 50% of bound peptide is displaced) by fitting the data to a 4-parameter logistic model using XLFit software (Guildford, Surrey, UK). IC50 is converted to a binding dissociation constant (Ki value) according to the formula of Wang Z. FEBS Lett (1996) 3, 245: Ki=[I]50/([L]50/Kd+[P]0/Kd+1) where [I]50 is the concentration of the free inhibitor at 50% inhibition, [L]50 is the concentration of the free labeled ligand at 50% inhibition, [P]0 is the concentration of the free protein at 0% inhibition, Kd represents the dissociation constant of the FITC peptide probe.
(In fluorescence polarisation assays a small probe gives low polarisation when free and higher when bound to something large.)

Experiment [2] addresses recombinant Mcl-1 (residues 172-327) (Homo sapiens (Human), UniProt Q07820). The experiment is described as follows: Bak peptide binding assay, fluorescence polarization anisotropy competition (FITC-Bak), Mcl-1.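 Further: displacement of labeled Bak peptide read by fluorescence anisotropy, 10-point threefold dilutions from 20 µM top dose in 5% DMSO, 90 min incubation at room temperature.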 Conditions: FITC-Bak peptide 10 nM, Mcl-1 14 nM.
Experimental: Compound affinity was measured using a fluorescence polarization anisotropy competition assay. Anisotropy measurements were carried out in 384-well, black, flat-bottom plates (Greiner Bio-one, Monroe, N.C., USA). […] 10 nM FITC-Bak peptide and 14 nM recombinant Mcl-1 (residues 172-327) were added to assay buffer (3 mM dithiothreitol, 50 mM NaCl, 20 mM Tris, pH 7.5).
Experiment [3] addresses Bcl-2 (residues 1-207 A96T,G110R, Δ35-91, replaced with Bcl-xL35-50) (Homo sapiens (Human), UniProt P10415, DEL35-91/INS34DVEENRTEAPEGTESE). As to the kind of experiment: Bak peptide binding assay, fluorescence polarization anisotropy competition (FITC-Bak), Bcl-2 selectivity. The note with it: Table 4; FITC-Bak peptide 10 nM, Bcl-2 40 nM. The procedure:
as §1, §2, §3

Setting [4] is: Table 3, binned ranges, read-out: Ki for inhibition of Mcl-1.

Where two headings read alike, the source gives them in different places.

Here are results for 16 molecules from US10954193B2 (Vanderbilt University, priority 2013, dated 2021).

Chain of recombinant Mcl-1 (residues 172-327) (Q07820 172-327): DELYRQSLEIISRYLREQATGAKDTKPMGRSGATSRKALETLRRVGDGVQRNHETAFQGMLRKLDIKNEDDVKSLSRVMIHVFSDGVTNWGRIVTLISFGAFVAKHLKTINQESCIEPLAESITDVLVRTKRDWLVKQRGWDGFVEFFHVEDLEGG
Chain of Bcl-xL (residues 1-209, loop 45-86 deleted) (Q07817 other isoform, or with tags, fused parts or gaps del 45-86): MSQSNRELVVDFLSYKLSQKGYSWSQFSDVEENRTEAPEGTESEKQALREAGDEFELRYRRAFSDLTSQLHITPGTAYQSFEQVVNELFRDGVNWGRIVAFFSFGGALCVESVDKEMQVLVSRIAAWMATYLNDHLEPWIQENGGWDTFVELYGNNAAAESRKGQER
Chain of Bcl-2 (residues 1-207 A96T,G110R, Δ35-91, replaced with Bcl-xL35-50) (P10415 other isoform, or with tags, fused parts or gaps, stated change not applied): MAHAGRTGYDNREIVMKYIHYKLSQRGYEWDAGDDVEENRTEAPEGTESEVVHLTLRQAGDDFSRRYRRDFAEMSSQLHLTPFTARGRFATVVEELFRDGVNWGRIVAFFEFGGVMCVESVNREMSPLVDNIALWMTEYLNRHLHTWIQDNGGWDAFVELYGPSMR

For orientation: Ki means a measure of affinity in units of concentration, obtained from inhibition or displacement. Consider `Cc1cc(OCCCc2cn(CCC(=O)NS(C)(=O)=O)c3cc(Cl)ccc23)cc(C)c1Cl` [Example 20, 3-(6-chloro-3-(3-(4-chloro-3,5-dimethylphenoxy)propyl)-1H-indol-1-yl)-N-(methylsulfonyl)propanamide], for which the inhibition constant (Ki) was 10000 nM in experiment [1]; 101 to 299 nM in experiment [2] (setting [4]); 360 nM in experiment [2] (Table 4, read-out: Ki Mcl-1).

As to `Cc1cc(OCCCc2c(C)n(CCC(=O)O)c3cc(Cl)ccc23)cc(C)c1Cl` [Example 44, 3-(6-chloro-3-(3-(4-chloro-3,5-dimethylphenoxy)propyl)-2-methyl-1H-indol-1-yl)propanoic acid], the Ki in experiment [1] is 7900 nM; in experiment [2] (setting [4]), 101 to 299 nM; in experiment [2] (Table 4, read-out: Ki Mcl-1), 170 nM.

Consider `Cc1cc(OCCCc2c(C)n(Cc3ccc(C(=O)O)o3)c3c(-c4c(C)n[nH]c4C)cccc23)cc(C)c1Cl` [Example 99, 5-((3-(3-(4-chloro-3,5-dimethylphenoxy)propyl)-7-(3,5-dimethyl-1H-pyrazol-4-yl)-2-methyl-1H-indol-1-yl)methyl)furan-2-carboxylic acid], for which the Ki in experiment [1] is 9300 nM; in experiment [2] (setting [4]), at most 100 nM; in experiment [2] (Table 4, read-out: Ki Mcl-1), 11 nM; in experiment [3] it was 2900 nM.

As to `Cc1cc(OCCCc2c(C)n(Cc3cccc(C(=O)O)c3)c3c(-c4c(C)n[nH]c4C)cccc23)cc(C)c1Cl` [Example 100, 3-((3-(3-(4-chloro-3,5-dimethylphenoxy)propyl)-7-(3,5-dimethyl-1H-pyrazol-4-yl)-2-methyl-1H-indol-1-yl)methyl)benzoic acid], the Ki was 4700 nM in experiment [1]; at most 100 nM in experiment [2] (setting [4]); 10 nM in experiment [2] (Table 4, read-out: Ki Mcl-1); 1200 nM in experiment [3].

Regarding `Cc1cc(OCCCc2c(C(F)(F)F)n(Cc3ccc(C(=O)O)cc3)c3c(-c4c(C)nn(C)c4C)cccc23)cc(C)c1Cl` [Example 124, 4-((3-(3-(4-chloro-3,5-dimethylphenoxy)propyl)-2-(trifluoromethyl)-7-(1,3,5-trimethyl-1H-pyrazol-4-yl)-1H-indol-1-yl)methyl)benzoic acid], the inhibition constant Ki in experiment [2] (setting [4]) was at most 100 nM.

`Cc1cc(OCCCc2c(C)n(Cc3cccc(C(=O)NS(C)(=O)=O)c3)c3c(-c4c(C)nn(C)c4C)cccc23)cc(C)c1Cl` [Example 125, 3-((3-(3-(4-chloro-3,5-dimethylphenoxy)propyl)-2-methyl-7-(1,3,5-trimethyl-1H-pyrazol-4-yl)-1H-indol-1-yl)methyl)-N-(methylsulfonyl)benzamide]: the Ki in experiment [2] (setting [4]) is at most 100 nM.

Consider `Cc1cc(OCCCc2c(C)n(Cc3cccc(C(=O)NS(=O)(=O)c4ccccn4)c3)c3c(-c4c(C)nn(C)c4C)cccc23)cc(C)c1Cl` [Example 126, 3-((3-(3-(4-chloro-3,5-dimethylphenoxy)propyl)-2-methyl-7-(1,3,5-trimethyl-1H-pyrazol-4-yl)-1H-indol-1-yl)methyl)-N-(pyridin-2-ylsulfonyl)benzamide], for which, in experiment [2] (setting [4]), the Ki is at most 100 nM.

Regarding `Cc1cc(OCCCc2c(C)n(Cc3cccc(C(=O)NS(=O)(=O)c4ccccc4)c3)c3c(-c4c(C)nn(C)c4C)cccc23)cc(C)c1Cl` [Example 127, 3-((3-(3-(4-chloro-3,5-dimethylphenoxy)propyl)-2-methyl-7-(1,3,5-trimethyl-1H-pyrazol-4-yl)-1H-indol-1-yl)methyl)-N-(phenylsulfonyl)benzamide], in experiment [2] (setting [4]), the inhibitory constant (Ki) is at most 100 nM.

For the molecule `Cc1cc(OCCCc2c(C)n(Cc3cccc(C(=O)NS(=O)(=O)c4ccncc4)c3)c3c(-c4c(C)nn(C)c4C)cccc23)cc(C)c1Cl` [Example 128, 3-((3-(3-(4-chloro-3,5-dimethylphenoxy)propyl)-2-methyl-7-(1,3,5-trimethyl-1H-pyrazol-4-yl)-1H-indol-1-yl)methyl)-N-(pyridin-4-ylsulfonyl)benzamide], the Ki in experiment [2] (setting [4]) fell in the range of 101 to 299 nM.

For the molecule `Cc1cc(OCCCc2c(C)n(Cc3cccc(C(=O)NS(=O)(=O)c4cccnc4)c3)c3c(-c4c(C)nn(C)c4C)cccc23)cc(C)c1Cl` [Example 129, 3-((3-(3-(4-chloro-3,5-dimethylphenoxy)propyl)-2-methyl-7-(1,3,5-trimethyl-1H-pyrazol-4-yl)-1H-indol-1-yl)methyl)-N-(pyridin-3-ylsulfonyl)benzamide], the inhibition constant (Ki) in experiment [2] (setting [4]) was in the range of 101 to 299 nM.

As for `Cc1cc(OCCCc2c(C)n(Cc3ccc(C(=O)NS(=O)(=O)c4ccccc4)cc3)c3c(-c4c(C)nn(C)c4C)cccc23)cc(C)c1Cl` [Example 130, 4-((3-(3-(4-chloro-3,5-dimethylphenoxy)propyl)-2-methyl-7-(1,3,5-trimethyl-1H-pyrazol-4-yl)-1H-indol-1-yl)methyl)-N-(phenylsulfonyl)benzamide], the inhibition constant (Ki) in experiment [2] (setting [4]) is at most 100 nM.

With `Cc1cc(OCCCc2c(C)n(Cc3ccc(C(=O)NS(C)(=O)=O)cc3)c3c(-c4c(C)nn(C)c4C)cccc23)cc(C)c1Cl` [Example 131, 4-((3-(3-(4-chloro-3,5-dimethylphenoxy)propyl)-2-methyl-7-(1,3,5-trimethyl-1H-pyrazol-4-yl)-1H-indol-1-yl)methyl)-N-(methylsulfonyl)benzamide], the Ki in experiment [2] (setting [4]) was at most 100 nM.

Consider `Cc1cc(OCCCc2c(C)n(Cc3ccc(C(=O)NS(=O)(=O)c4ccccn4)cc3)c3c(-c4c(C)nn(C)c4C)cccc23)cc(C)c1Cl` [Example 132, 4-((3-(3-(4-chloro-3,5-dimethylphenoxy)propyl)-2-methyl-7-(1,3,5-trimethyl-1H-pyrazol-4-yl)-1H-indol-1-yl)methyl)-N-(pyridin-2-ylsulfonyl)benzamide], for which the Ki in experiment [2] (setting [4]) is at most 100 nM.

In the case of `Cc1cc(OCCCc2c(C)n(CCC(=O)O)c3c(-c4c(C)nn(Cc5cccnc5)c4C)cccc23)cc(C)c1Cl` [Example 133, 3-(3-(3-(4-chloro-3,5-dimethylphenoxy)propyl)-7-(3,5-dimethyl-1-(pyridin-3-ylmethyl)-1H-pyrazol-4-yl)-2-methyl-1H-indol-1-yl)propanoic acid], in experiment [2] (setting [4]), the Ki was at most 100 nM.

As to `Cc1cc(OCCCc2c(C)n(Cc3ccc(C(=O)O)cn3)c3c(-c4c(C)nn(C)c4C)c(Cl)ccc23)cc(C)c1Cl` [Example 134, 6-((6-chloro-3-(3-(4-chloro-3,5-dimethylphenoxy)propyl)-2-methyl-7-(1,3,5-trimethyl-1H-pyrazol-4-yl)-1H-indol-1-yl)methyl)nicotinic acid], the inhibitory constant (Ki) in experiment [2] (setting [4]) is at most 100 nM.

On to `Cc1cc(OCCCc2c(C(F)(F)F)n(CCC(=O)O)c3ccccc23)cc(C)c1Cl` [Example 135, 3-(3-(3-(4-chloro-3,5-dimethylphenoxy)propyl)-2-(trifluoromethyl)-1H-indol-1-yl)propanoic acid], for which the Ki in experiment [2] (setting [4]) is at most 100 nM.
